Series [1] concerns U1 cells latently infected with HIV-1. As to the kind of experiment: U1 latency activation assay (TNF-α induced, supernatant reverse transcriptase). It counts as cell-based. To be noted: for TI (TC50/IC50): Table 6. How it is done:
U1 cells were obtained from the AIDS Research and Reference Reagent Program and maintained under standard culture conditions in RPMI 1640 supplemented with 10% fetal bovine serum (heat inactivated), 2 mM L-glutamine, 100 U/mL penicillin and 100 μg/mL streptomycin. U1 cells are derived from the histocytic leukemia cell line U937, and contain an integrated copy of a cytokine and/or phorbol inducible provirus (HIV-1IIIB). Cultures were maintained in such a way as to ensure exponential growth of the populations. Addition of TNF-α to the cell culture induces HIV-1, so that inhibition of virus production indicates an inhibition of a post-integration function of the HIV-1 life cycle. This is where an inhibitor of Rev function would be expected to act. […]
(§1) At the time of the assay, cells were collected by centrifugation and counted by hemacytometer. If cell viability by Trypan Blue dye exclusion was less than 70% the assay was terminated. The cells were adjusted to 5×10^4 cells/mL and 100 μL placed in 96 well plates with 100 μL media containing a final concentration of 5 ng/mL TNF-α and the test compound. Cultures were incubated for 3 days and supernatants harvested. Compound toxicity was determined by MTS dye reduction. Virus expression was measured by supernatant reverse transcriptase activity.
Reverse transcriptase was assayed to measure virus particle release as described above for the PBMC assay.
(§2) Compounds were tested in the U1 latency assay using the maximum high-test concentration possible based on the supplied stocks which are listed in table 3. Compounds were tested using the maximum high-test concentration possible based on the supplied stocks. Compounds were prepared at a 2× high-test concentration by combining drug stock with tissue culture media at a ratio of 5 μL of drug to 995 μL of media. This 2× high-test sample was subsequently serially diluted in tissue culture media using 1/2 log dilutions. This series of 2× concentrated drug was subsequently diluted 1:1 by combining with an equal volume of cells in media in the 96-well plates used for the assay. Temacrazine a known inhibitor of HIV transcription was used as a control compound that is active in the post-integration part of the HIV life cycle.
(§3) Compounds were tested using the maximum high-test concentration possible based on the supplied stocks. Compounds were prepared at a 2× high-test concentration by combining drug stock with tissue culture media at a ratio of 5 μL of drug to 995 μL of media. This 2× high-test (HT) sample was subsequently serially diluted in tissue culture media using 1/2 log dilutions. This series of 2× concentrated drug was subsequently diluted 1:1 by combining with an equal volume of cells in media in the 96-well plates used for the assay.

The subject of series [2] is HIV particle formation in 5BD.1 cells. As to the kind of experiment: Six point dose response assay of HIV particle release (p24 ELISA) in 5BD.1 cells. It is filed as cell-based, HIV-1. To be noted: for TI (TC50/IC50): TC50 MT4 cells / IC50 5BD.1 cells; for IC50: six point dose response, p24 in 5BD.1 cells, Table 1. The text has this: The present invention is directed to a safe quantitative in vitro high-throughput assay to screen library compounds for effects on Rev-dependent p24 production. Two cell lines derived from COS cells provide the means of determining whether a library compound has anti-Rev activity-5BD.1 and 2A.22. These cell lines constitutively express HIV-like particles that contain the HIV core proteins as well as HIV envelope protein. The non-infectious virions created by these cells are secreted into the media, where a simple p24 ELISA can quantitatively determine virion production. Production of these virus-like particles is totally dependent on the expression of the Rev protein (for the 5BD.1 cell line), which is also made in these cell lines, or independent of Rev protein expression (the 2A.22 cell line).
The cell line 5BD.1 was created by transfecting COS cells with the wild type HIV-1 structural and regulatory genes gag, gagpol, rev, and env. Each of these genes is necessary but not sufficient for producing infectious HIV virions. Non-infectious virions are produced in 5BD.1 cells via the same pathways as in CD4^+ cells. Inhibition of Rev with a library compound would therefore have the same effect on viral production in 5BD.1 cells as in CD4^+ cells.
Each of the 192 compounds was then subjected to 3 and 6 point dose response assays in 5BD.1 cells and toxicity testing in the MT-4 T cell line. The dose response assay was performed as follows
• 1. 5BD.1 cells were carried in 2 T175 flasks in medium (IMDM/10% FCS/0.2 mg/ml HygromycinB/1.5 mg/ml G418/0.05 mg/ml gentamycin). Cells were trypsinized and harvested from a 90% confluent flask. • 2. 20,000 cells per well were plated into rows A-G of 8 tissue culture treated clear 96-well plates in 135 μl per well of medium without G418 (assay medium). 135 μl of medium only was added to row H. • 3. The plates were placed into the incubator for one hour. • 4. Compounds were serially diluted 1:3 two times from 1 mM DMSO stocks in DMSO in 96 well polypropylene plates. 8 μl of the DMSO solutions were transferred to another plate and 72 μl of assay medium was added. • 5. 15 μl of each diluted compound was transferred to the cell plates in duplicate with the high (10 μM final concentration in rows A-B, 3 μM concentration in rows C-D, 1 μM concentration in rows E-F and DMSO only in rows G-H). • 6. The plates were then incubated overnight for 16 hours. • 7. In the morning of the next day the medium was removed by hand from all wells. • 8. 135 μl of fresh assay medium was added to each well followed by 15 μl of diluted compounds as described in step 5. • 9. The plates were then incubated for 24 hours and the medium was harvested. p24 ELISA Assay: • 10. Dilute primary antibody to 4 μg/ml in DPBS without calcium and magnesium, add 50 μl per well of a 96 well Maxisorp plate, incubate overnight at 4° C. • 11. Aspirate coating solution, block for 30-60 minutes with 200 μl ELISA buffer (4 mg/ml BSA, 0.01% Tween20 in DPBS without calcium and magnesium). • 12. Wash plates 2×. • 13. Add 50 μl of the supernatants from step 9 above. • 14. Add 15 μl of a 1:750 dilution of biotinylated secondary antibody in 40% lysis buffer/ELISA buffer. • 15. Incubate 2 hours at room temperature with shaking. • 16. Wash plates 3×. • 17. Add 50 μL/well of a 1:10,000 dilution of detection SA-HRP. Incubate at room temperature with shaking for 30 minutes. • 18. Wash plates 3×. Add 50 μL/well of TMB substrate solution to all wells and develop for approximately 15 minutes until blue. • 19. Stop the reaction with 50 μL/well 0.18M sulfuric acid. • 20. Read plate at 450 nm. Toxicity Assays:
The six point dose assay in 5BD.1 cells was used to calculate an IC50 for the compounds and data from the MT-4 toxicity assay allowed a TC50 to be calculated.

Series [3] is described as follows: MTS staining for cell viability in U1 cell assay. Particulars: human, U1 cells stimulated with TNF-α, read-out: TC50. It is filed as cell-based. As to the method: as §1
At assay termination, the assay plates were stained with the soluble tetrazolium-based dye MTS (CellTiter 96 Reagent, Promega) to determine cell viability and quantify compound toxicity as described for the PBMC assay.
as §2, §3

[4] abbreviates: Human immunodeficiency virus 1, 72 h, U1 cell assay, Table 6, 5 ng/mL TNF-α, 3 days, RT activity.

Read-outs that look alike come from different tables or passages of the source. Bounds are passed on as bounds.

The IC50 is the concentration that gives 50% inhibition. High values mean weaker potency in that assay, low ones greater potency in that assay. Turning to “2-chloro-N-(4-methylphenyl)-4-(trifluoromethyl)-1,3-thazole-5-carboxamide [Compound 91161]”, the “TI (TC50/IC50)” value came out at 1.35 in series [1] (U1 cell assay) and 9.47 in series [2]. Also, the half-maximal inhibitory concentration (IC50) is 16.5 µM in series [1] (U1 cell assay, Table 6, 5 ng/mL TNF-α, 3 days, RT activity) and 1.9 µM in series [2].

As for `CCc1c(C(=O)Nc2ccccc2)c(C)nc2sc(C(N)=O)c(N)c12` [Compound 75168, 3-amino-4-ethyl-6-methyl-N˜5˜-phenylthieno[2,3-b]pyridine-2,5-dicarboxamide], the half-maximal inhibitory concentration (IC50) in series [2] (Human immunodeficiency virus 1) amounted to 3 µM. For the same compound, in series [2], the “TI (TC50/IC50)” value was more than 33.3.

For the compound `COc1ccc2cc3c(N)n[nH]c3nc2c1` [Compound 89246, 7-methoxy-1H-pyrazolo[3,4-b]quinolin-3-ylamine], the IC50 in series [1] (setting [4]) is 0.24 µM; in series [1] (Human immunodeficiency virus 1, U1 cell assay, analogs, Table 8), less than 0.172 µM; in series [2] (Human immunodeficiency virus 1) it was 0.9 µM. Also, the “TI (TC50/IC50)” value in series [1] (U1 cell assay) was determined as 102; in series [2], 22.22. Further, the CC50 at 3 days turned out to be 24.6 µM in series [3] (Table 6, MTS) and 29 µM in series [3] (analogs, Table 8, MTS).

In the case of `CCc1c(C)nc2sc(C(N)=O)c(N)c2c1C` [Compound 103833, 3-amino-5-ethyl-4,6-dimethylthieno[2,3-b]pyridine-2-carboxamide], the results for the concentration for half-maximal inhibition (IC50) in series [1] (setting [4]) and in series [2] (Human immunodeficiency virus 1) were 0.4 µM and 0.9 µM, respectively. For the same compound, the entries for the “TI (TC50/IC50)” value in series [1] (U1 cell assay) and in series [2] were more than 94 and 35.6, respectively. In addition, the CC50 at 3 days in series [3] (Table 6, MTS) was more than 37.6 µM.

Turning to `COc1ccc2nc(C(F)(F)F)c(C#N)c(N)c2c1` [Compound 104366, 4-amino-6-methoxy-2-(trifluoromethyl)-3-quinolinecarbonitrile], the IC50 in series [1] (setting [4]) is less than 0.25 µM; in series [2] (Human immunodeficiency virus 1) it was 2.5 µM. Besides, the “TI (TC50/IC50)” value in series [1] (U1 cell assay) is given as more than 49.6; in series [2] it was 11.2. Also, in series [3] (Table 6, MTS), the CC50 at 3 days turned out to be 12.4 µM.

Consider `CS(=O)(=O)c1ncc(-c2ccc(Br)cc2)cn1` [Compound 107129, -(4-bromophenyl)-2-(methylsulfonyl)pyrimidine], for which the IC50 in series [1] (setting [4]) was more than 53 µM; in series [2] (Human immunodeficiency virus 1), 0.25 µM. Further, the “TI (TC50/IC50)” value in series [2] stood at 40.0. In addition, in series [3] (Table 6, MTS), the CC50 at 3 days is more than 53 µM.

In the case of `COc1cccc(NC(=O)c2cc(Cl)nnc2Cl)c1` [Compound 107740, 3,6-dichloro-N-(3-methoxyphenyl)-4-pyridazinecarboxamide], the IC50 in series [1] (setting [4]) came to 1.1 µM; in series [2] (Human immunodeficiency virus 1), 4.9 µM. For the same compound, the “TI (TC50/IC50)” value in series [1] (U1 cell assay) was more than 26.6; in series [2], 10.2. In addition, the CC50 at 3 days in series [3] (Table 6, MTS) was more than 29.3 µM.

On to `Fc1ccc(Nc2ncnc3ccccc23)cc1Cl` [Compound 109020, N-(3-chloro-4-fluorophenyl)-N-(4-quinazolinyl)amine], for which the IC50 in series [1] (setting [4]) amounted to 0.27 µM; in series [2] (Human immunodeficiency virus 1), 3 µM. Also, the “TI (TC50/IC50)” value in series [1] (U1 cell assay) is more than 151; in series [2], 33.3. The CC50 at 3 days in series [3] (Table 6, MTS) is more than 40.8 µM.

The record behind these values is patent US7875604B2, “Compounds that inhibit HIV particle formation” (University of Virginia Patent Foundation, priority 2004, dated 2011).
